Test results from patent publication EP0363671A2, “Use of ACE inhibitors against the formation of neo-intima after vascular infliction” (F. HOFFMANN-LA ROCHE AG, priority 1988, dated 1990).

What was measured:
[1] = Lowering of systolic blood pressure by the dose mixed into the feed; assay type: in vivo, Ratten, Stamm: RORO; conditions: average daily intake 10 mg/kg mixed into feed
Method: (§1) Die Tiere der Behandlungsgruppe erhielten 20 Tage lang soviel Cilazapril dem Futter beigemischt, dass die tägliche Cilazaprilaufnahme durchschnittlich 10 mg/kg betrug. Es handelt sich um eine Dosierung, die den systolischen Blutdruck um ca. 25% senkte. Die Kontrolltiere erhielten das gleiche Laborfutter ohne Zusatz. Die Ballonisierung der Arteria carotis communis wurde 6 Tage nach der ersten Gabe von Cilazapril durchgeführt. Die Tiere wurden mit Aetherinhalation und subcutaner Verabreichung von 200 mg/kg Hexobarbital-Na narkotisiert. Die distale linke Arteria carotis communis und das Bifurkationsgebiet von Carotis externa und interna wurden freigelegt. Der FOGARTY-Katheter (12-060-2F, Edwards Laboratories, Santa Anna, CA, USA) wurde durch die Arteria carotis externa in die Arteria carotis communis bis zum Aortenbogen eingeführt, der Ballon mit Wasser gefüllt (Füllungsvolumen ca. 0,01-0,015 ml) und gegen einen leichten Widerstand zurückgezogen. Dieses Procedere wurde zweimal wiederholt. Die Arteria carotis externa wurde ligiert und die Wunde vernäht. Die Operateure hatten keine Kenntnis, ob es sich um behandelte oder unbehandelte Tiere handelte.

[2] = system: Neointima in der ballonisierten Arteria carotis; assay: Neointima formation after balloon catheter injury (ballooning) of the carotid artery, morphometry of cross-sections 14 days later; assay type: in vivo, Ratten, Stamm: RORO
Excerpt: Eine Arterie wird mit Hilfe eines Ballonkatheters, der durch das Gefässlumen geschoben wird, von innen verletzt (Ballonisierung). Dabei wird die innerste Zellschicht, das Endothel, entfernt und die Muskelzellen der Media leicht geschädigt. Die Muskelzellen werden dadurch zur Proliferation und Migration in die Intima angeregt. […] Das Ausmass der Neointimabildung wird anschliessend an Querschnitten durch die Arterie mit Hilfe morphometrischer Methoden ausgemessen.
Die Tiere wurden randomisiert in eine Kontrollgruppe und in eine Behandlungsgruppe eingeteilt. Es wurden je 11 Tiere als Kontroll- bzw. behandelte Tiere eingesetzt.
as §1, with “Es handelt sich um eine Dosierung, die den systolischen Blutdruck um ca. 25% senkte.” left out
14 Tage nach der Ballonisierung wurden die Ratten mit Aether anaesthesiert und die Carotiden durch Perfusion mit Fixationsmittel (2,5% Glutaraldehyd in 0,1 M Phosphatpuffer, pH 7,4), fixiert. Hierzu wurde eine Sonde durch den linken Herzventrikel in die aufsteigende Aorta geführt (Einfluss) und eine zweite Sonde durch den rechten Ventrikel in den Vorhof geschoben (Abfluss). Das Gefässsystem wurde zunächst mit 10 ml PBS ("phosphate buffered saline"; gepufferte isotonische NaCI-Lösung) gespült und dann 15 min lang mit Fixationsmittel bei einem Druck von 90 mm Quecksilbersäule fixiert. Anschliessend wurden sowohl die linke (ballonisierte) als auch die rechte (nicht-ballonisierte) Arteria carotis (Kontrolle) herauspräpariert, von Gewebe befreit und zur weiteren Fixation in 2,5% Glutaraldehyd in 0,1 M Cacodylat-Puffer eingelegt. […] Das mittlere Segment wurde für die morphologischen Untersuchungen verwendet.
Semidünne Querschnitte (1 µm dick) wurden mit Toluidinblau und basischem Fuchsin gefärbt.
Aus diesen Messungen wurden folgende Parameter berechnet: • (6) Die mittlere Dicke der Neointima in um, berechnet als Kreisring aus der Querschnittsfläche der Neointima. Hierzu wurde der Neointimaquerschnitt in einen Kreisring transformiert, dessen äussere Begrenzung die Lamina elastica interna bildete. • (7) Die Querschnittsfläche der Neointima zur Querschnittsfläche der Media in Prozent (normalisierte Neointimafläche) • (8) Der Prozentsatz der mit Neointima bedeckten Lamina elastica interna.

[3] = versus untreated control animals, about 10 mg/kg daily in feed, 14 days after ballooning

For `CCOC(=O)[C@H](CCc1ccccc1)N[C@H]1CCCN2CCC[C@@H](C(=O)O)N2C1=O` [Cilazapril], the “Senkung des systolischen Blutdrucks” value [1] was “ca. 25%”, the “Mittlere Dicke der Neointima” value ([2]; calculated as circular ring from the neointima cross-sectional area, mean ± SD, n = 11, about 10 mg/kg daily in feed, 14 days after ballooning, controls 50 ± 25) was 8±7 µm and the “Querschnittsfläche des Lumens” value ([2]; mean ± SD, n = 11, about 10 mg/kg daily in feed for 20 days, 14 days after ballooning, untreated controls 324 x 10^3) was 468 x 10^3±114 x 10^3 µm^2. For the same molecule, the “Prozentsatz von mit Neointima bedeckter Lamina elastica interna” value ([2]; mean ± SD, n = 11, about 10 mg/kg daily in feed, 14 days after ballooning, controls 93 ± 15) was 35±29%, the “Querschnittsfläche der Neointima” value ([2]; mean ± SD, n = 11, cilazapril about 10 mg/kg daily in feed for 20 days, ballooning on day 6, left carotid fixed 14 days after ballooning, untreated controls 109 x 10^3) was 20 x 10^3±18 x 10^3 µm^2 and the “Verhältnis von Querschnittsfläche der Neointima zu Querschnittsfläche der Media” value ([2]; normalised neointima area, mean ± SD, n = 11, about 10 mg/kg daily in feed, 14 days after ballooning, controls 101 ± 43) was 23±21%. The “Tiere mit vollständig gehemmter Neointimabildung” value ([2]; number of treated animals out of 11, about 10 mg/kg daily in feed, 14 days after ballooning) was 3 von 11, the “Hemmung (Querschnittsfläche der Neointima)” value [2, 3] was 82% and the “Hemmung (mittlere Dicke der Neointima)” value [2, 3] was 84%.
